# Experimental data taken from patent EP0054589B1, “Organic phosphoric acid ester derivatives, a process for preparing the same and insecticidal, miticidal or nematocidal compositions containing the same” (priority 1980, dated 1982).
# Tests used:
# [1] = test system: rice stem borer; experiment: Insecticidal effect on rice stem borer, 3rd-instar larvae (rice seedling dip); type: in vivo, Chilo suppressalis; conditions: Table 1; 500 ppm; after 72 hours, 25°C; wettable powder as Formulation Example 5
# How it was run: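 Wettable-powder formulations were diluted in water to set concentrations, and rice seedlings were dipped in them. Ten 3rd-instar larvae were placed per capped cup with the treated seedlings and held at 25°C.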
# [2] = test system: tobacco cutworm; experiment: Insecticidal effect on tobacco cutworm (cabbage leaf dip); type: in vivo, Prodenia litura; conditions: Table 3; 500 ppm; after 48 hours, 25°C; emulsifiable concentrate as Formulation Example 1
# How it was run: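 Cabbage leaves dipped in water-diluted emulsifiable concentrate (two formulations, tests A and B) and air-dried were fed to 3rd-instar tobacco cutworm larvae at 25°C. Percent mortality scored after 48 hours; 3 replicates of 30 insects per compound.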
# [3] = test system: diamond back moth; experiment: Insecticidal effect on diamond-back moth (cabbage leaf dip); type: in vivo, Plutella xylostella; conditions: Table 7; 100 ppm; after 72 hours, 25°C; emulsifiable concentrate as Formulation Example 1
# How it was run: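 Cabbage leaves dipped 10 s in water-diluted emulsifiable concentrate at set concentration, air-dried; thirty 3rd-instar diamond-back moth larvae per cup held at 25°C. Percent mortality scored after 72 h, three replicates per treatment.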
# [4] = test system: carmine mites; experiment: Miticidal effect on carmine mite (sprayed kidney bean seedling); type: in vivo, Tetranychus cinnabarius; conditions: 500 ppm
# Description: An emulsifiable concentrate prepared as described in Formulation Example 1 and diluted to a predetermined concentration was sprayed using a spray-gun on a seedling of a kidney bean placed in a pot of 12 cm in diameter to which plant carmine mites were parasitic. After drying in air, seedlings were kept in a green house, and the number of living insects was recorded on the 7th, 14th, 21st and 28th day from the day of application to determine the control effects. Three pots were used for each treatment. The control effect was assessed by the following formula: [formula] • wherein Σ indicates sum and Cb, Tb, Cai and Tai have the following meanings. • Cb: Number of living mites in non-treated sample before application. • Tb: Number of living mites in treated sample before application. • Cai: Number of living mites in non-treated sample 7th, 14th, 21 st or 28th day from the application. • Tai: Number of living mites in treated sample 7th, 14th, 21st or 28th day from the application.
# [5] = test system: carmine mites resistant to Kelthane; experiment: Miticidal effect on carmine mite resistant to Kelthane (sprayed egg plant seedling); type: in vivo, Tetranychus cinnabarius; conditions: 500 ppm; for Number of Living Mites after Application 7th Day / Number of Living Mites after Application 14th Day / Number of Living Mites after Application 21st Day / Number of Living Mites after Application 28th Day: egg plant seedling; for Control Effect (%): from mite counts on 7th, 14th, 21st and 28th day
# Description: (§1) (A) An emulsifiable concentrate prepared as described in Formulation Example 1 and diluted to a predetermined concentration was sprayed using a spray-gun on a seedling of an egg plant placed in a pot of 12 cm in diametre to which plant carmine mites resistant to Kelthane were parasitic. After drying in air, seedlings were kept in a green house, and the number of living insects was recorded on the 7th, 14th, 21 st and 28th day from the day of application to determine the control effects. Three pots were used for each treatment. The control effect was assessed by the formula described in TEST EXAMPLE 7 above. Further, phytotoxicity was observed visually on the 7th day after the application.
# as §1, with “(B) An” for “(A) An”, “Example 3” for “Example 1”, “in diameter” for “in diametre”, “in Test” for “in TEST”
# [6] = test system: egg plant; experiment: Phytotoxicity observed visually in the mite test on egg plant; type: in vivo; parameters: key: —: None; +: Slightly toxic; ++: Toxic; +++: Strongly toxic; conditions: 500 ppm, observed visually on the 7th day after the application
# Description: as §1
# as §1, with “(B) An” for “(A) An”, “Example 3” for “Example 1”, “in diameter” for “in diametre”, “in Test” for “in TEST”
# [7] = test system: Apple; experiment: Phytotoxicity on various crops; type: in vivo; parameters: key: Symbol — indicates that no toxicity was observed; conditions: 500 ppm sprayed; checked visually after 10 days
# How it was run: (§2)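 Damage is judged visually 10 days after foliar spraying. Each compound is applied as a water-diluted emulsifiable concentrate at 500 ppm effective ingredient, with plants kept in a greenhouse and three replicates run.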
# [8] = test system: Beet; experiment: Phytotoxicity on various crops; type: in vivo; parameters: key: Symbol — indicates that no toxicity was observed; conditions: 500 ppm sprayed; checked visually after 10 days
# How it was run: as §2
# [9] = test system: Cabbage; experiment: Phytotoxicity on various crops; type: in vivo; parameters: key: Symbol — indicates that no toxicity was observed; conditions: 500 ppm sprayed; checked visually after 10 days
# How it was run: as §2
# [10] = test system: Cotton; experiment: Phytotoxicity on various crops; type: in vivo; parameters: key: Symbol — indicates that no toxicity was observed; conditions: 500 ppm sprayed; checked visually after 10 days
# How it was run: as §2
# [11] = test system: Cucumber; experiment: Phytotoxicity on various crops; type: in vivo; parameters: key: Symbol — indicates that no toxicity was observed; conditions: 500 ppm sprayed; checked visually after 10 days
# How it was run: as §2
# [12] = test system: Green Pepper; experiment: Phytotoxicity on various crops; type: in vivo; parameters: key: Symbol — indicates that no toxicity was observed; conditions: 500 ppm sprayed; checked visually after 10 days
# How it was run: as §2
# [13] = test system: Kidney Bean; experiment: Phytotoxicity on various crops; type: in vivo; parameters: key: Symbol — indicates that no toxicity was observed; conditions: 500 ppm sprayed; checked visually after 10 days
# How it was run: as §2
# [14] = test system: Rice; experiment: Phytotoxicity on various crops; type: in vivo; parameters: key: Symbol — indicates that no toxicity was observed; conditions: 500 ppm sprayed; checked visually after 10 days
# How it was run: as §2
# [15] = test system: Tea; experiment: Phytotoxicity on various crops; type: in vivo; parameters: key: Symbol — indicates that no toxicity was observed; conditions: 500 ppm sprayed; checked visually after 10 days
# How it was run: as §2
# [16] = test system: Tomato; experiment: Phytotoxicity on various crops; type: in vivo; parameters: key: Symbol — indicates that no toxicity was observed; conditions: 500 ppm sprayed; checked visually after 10 days
# How it was run: as §2
# [17] = test system: egg plant; experiment: Phytotoxicity on various crops; type: in vivo; parameters: key: Symbol — indicates that no toxicity was observed; conditions: 500 ppm sprayed; checked visually after 10 days
# How it was run: as §2
# [18] = test system: tobacco cutworm; conditions: U.S. Patent No. 3,969,438; cited from earlier work
# [19] = test system: smaller tea tortrix; conditions: U.S. Patent No. 3,969,438; cited from earlier work
# [20] = test system: rice stem borer; conditions: U.S. Patent No. 3,969,438; cited from earlier work
# [21] = test system: diamond back moth; conditions: U.S. Patent No. 3,969,438; cited from earlier work
# [22] = test system: apple leaf miner; conditions: U.S. Patent No. 3,969,438; cited from earlier work
# [23] = Table 13, Formulation Example 1
# [24] = Table 14, Formulation Example 3
structure (smiles),measurement,setting,value
CCOP(=O)(Oc1ccc2c(c1)OC(C)=CC2(C)C)SC(C)CC (stereo not shown) [compound 6],Percent Mortality (%),[1],100%
same,Percent Mortality (%),[2],100%
same,Percent Mortality (%),[3],100%
same,Control Effect (%),[4],94.9%
same,Number of Living Mites after Application 7th Day,[4],0
same,Number of Living Mites after Application 14th Day,[4],0
same,Number of Living Mites after Application 21st Day,[4],4
same,Number of Living Mites after Application 28th Day,[4],45
same,Number of Living Mites after Application 7th Day,[5]; [23],0
same,Number of Living Mites after Application 14th Day,[5]; [23],0
same,Number of Living Mites after Application 21st Day,[5]; [23],10
same,Number of Living Mites after Application 28th Day,[5]; [23],54
same,Control Effect (%),[5]; Table 13,96.4%
same,Phytotoxicit,[6]; Table 13,—
same,Phytotoxicity: Apple,[7],—
same,Phytotoxicity: Beet,[8],—
same,Phytotoxicity: Cabbage,[9],—
same,Phytotoxicity: Cotton,[10],—
same,Phytotoxicity: Cucumber,[11],—
same,Phytotoxicity: Green Pepper,[12],—
same,Phytotoxicity: Kidney Bean,[13],—
same,Phytotoxicity: Rice,[14],—
same,Phytotoxicity: Tea,[15],—
same,Phytotoxicity: Tomato,[16],—
same,Phytotoxicity: Egg Plant,[17],—
CCCSP(=O)(OCC)Oc1ccc2c(C)cc(=O)oc2c1 (stereo not shown),pesticidal effect on tobacco cutworm,[18],to some extent
same,pesticidal effect on smaller tea tortrix,[19],to some extent
same,pesticidal effect on rice stem borer,[20],to some extent
same,pesticidal effect on diamond back moth,[21],to some extent
same,pesticidal effect on apple leaf miner,[22],less effective
CCOP(=S)(Oc1ccc2c(c1)OC(C)=CC2(C)C)SC(C)CC (stereo not shown) [compound 11],Percent Mortality (%),[1],100%
same,Percent Mortality (%),[2],100%
same,Percent Mortality (%),[3],100%
same,Number of Living Mites after Application 7th Day,[5]; [23],0
same,Number of Living Mites after Application 14th Day,[5]; [23],3
same,Number of Living Mites after Application 21st Day,[5]; [23],10
same,Number of Living Mites after Application 28th Day,[5]; [23],48
same,Control Effect (%),[5]; Table 13,97.0%
same,Number of Living Mites after Application 7th Day,[5]; [24],0
same,Number of Living Mites after Application 14th Day,[5]; [24],2
same,Number of Living Mites after Application 21st Day,[5]; [24],17
same,Number of Living Mites after Application 28th Day,[5]; [24],56
same,Control Effect (%),[5]; Table 14,93.1%
same,Phytotoxicit,[6]; Table 13,—
same,Phytotoxicit,[6]; Table 14,—
same,Phytotoxicity: Apple,[7],—
same,Phytotoxicity: Beet,[8],—
same,Phytotoxicity: Cabbage,[9],—
same,Phytotoxicity: Cotton,[10],—
same,Phytotoxicity: Cucumber,[11],—
same,Phytotoxicity: Green Pepper,[12],—
same,Phytotoxicity: Kidney Bean,[13],—
same,Phytotoxicity: Rice,[14],—
same,Phytotoxicity: Tea,[15],—
same,Phytotoxicity: Tomato,[16],—
same,Phytotoxicity: Egg Plant,[17],—
"OC(c1ccc(Cl)cc1)(c1ccc(Cl)cc1)C(Cl)(Cl)Cl [Kelthane, 2,2,2-trichloro-1,1-bis(4-chlorophenyl)ethanol, reference compound]",Control Effect (%),"[4]; Table 12, from mite counts on 7th, 14th, 21st and 28th day",99.0%
same,Number of Living Mites after Application 7th Day,"[4]; Table 12, kidney bean seedling",0
same,Number of Living Mites after Application 14th Day,"[4]; Table 12, kidney bean seedling",0
same,Number of Living Mites after Application 21st Day,"[4]; Table 12, kidney bean seedling",5
same,Number of Living Mites after Application 28th Day,"[4]; Table 12, kidney bean seedling",15
same,Number of Living Mites after Application 7th Day,[5]; [23],32
same,Number of Living Mites after Application 14th Day,[5]; [23],0
same,Number of Living Mites after Application 21st Day,[5]; [23],118
same,Number of Living Mites after Application 28th Day,[5]; [23],269
same,Control Effect (%),[5]; Table 13,61.5%
same,Number of Living Mites after Application 7th Day,[5]; [24],31
same,Number of Living Mites after Application 14th Day,[5]; [24],58
same,Number of Living Mites after Application 21st Day,[5]; [24],156
same,Number of Living Mites after Application 28th Day,[5]; [24],301
same,Control Effect (%),[5]; Table 14,32.3%
same,Phytotoxicit,[6]; Table 13,+++(*)
same,Phytotoxicit,[6]; Table 14,+++(*)
